The text below walks through data of patent US20220305023A1, “Chlorophyllin Containing Pharmaceutical Composition For Prevention Of Pathogenesis Of Coronavirus Disease” (priority 2021, published 2022).

pEC50: −log10 of the molar value.

The nature of data set [1]: Acute oral toxicity (oral gavage). Format: in vivo, mice and rats. On the procedure:
(§1) Different doses of Chlorophyllin (100 to 5000 mg/kg body weight) were given to mice and rats (6 males, 6 females) by oral gavage in an accredited facility for animal toxicity testing.

Data set [2] relates to SARS-CoV-2 virus. In kind it is cell-based.
The nature of data set [3]: 28 day repeat dose toxicity. In kind it is in vivo, rats. The settings on record: 1000 mg/kg body weight daily for 28 consecutive days. On the procedure:
as §1

Data set [4] has as its system neutrophils. Nature of the data set: Phase I study: absolute neutrophil count (ANC) in blood. In kind it is in vivo, human. On the procedure: (§2) An open label Phase I clinical study was conducted to assess pharmacodynamics of sodium copper Chlorophyllin in healthy adult, human male subjects under fasting conditions. The study was approved by Drug Controller General of India (DCGI). The trial is registered with the Clinical Trial Registry of India (CTRI/2018/09/015576). Five healthy male subjects were allowed to fast overnight and one Chlorophyllin tablet (750 mg) was administered to each subject by oral route along with ˜200 ml water. The subjects were given breakfast, lunch and snacks and a second tablet of Chlorophyllin (750 mg) was administered to each subject by oral route along with 200 ml water after 12 hr.
(§3) Chlorophyllin tablets comprising Chlorophyllin or salts thereof (750 mg), were administered to healthy human subjects after overnight fasting. Blood samples were collected through an indwelling intravenous cannula (Venflon) placed in the fore arm vein of the subjects at different time intervals. Absolute neutrophil count (ANC) and white blood cell (WBC) counts were measured. Serum was separated and chemokine concentration in the serum was measured using cytometric bead array.

In data set [5] the test system is lymphocytes. The experiment in a line: Phase I study: absolute lymphocyte count in blood. In kind it is in vivo, human. The following applies: 750 mg tablets, healthy subjects. On the procedure: as §2, §3
Data set [6] concerns Vero CCL-81 cells. The following applies: 5 μM.
Data set [7] can be described thus: Phase I study: tolerability in healthy human subjects. Format: in vivo. The settings on record: 750 mg given twice a day, five subjects. As to the method:
as §2

Data set [8] has as its system white blood cells. Nature of the data set: Phase I study: white blood cell (WBC) count in blood. Format: in vivo, human. The settings on record: 8-16 hr after first dose of 750 mg. On the procedure: as §2, §3
The test system of data set [9] is CD34+ hematopoietic stem and progenitor cells. The experiment in a line: Phase I study: CD34+ hematopoietic stem and progenitor cells in blood by flow cytometry. Format: in vivo, human. The following applies: 750 mg tablets, five subjects. On the procedure: as §2
Blood sample at each time point was also collected in K2EDTA vacutainer tube and erythrocytes were lysed using RBC lysis buffer. Then cells were stained with fixable far red live dead reagent and PE-CD34 and FITC-CD45 antibodies at 4° C. and fixed with 4% formaldehyde. The frequency of CD34+ hematopoietic stem and progenitor cells in the blood was determined by flow cytometry and FlowJo software.
(Flow cytometry measures light scatter and fluorescence of single cells or particles in a stream.)

Take Sodium copper Chlorophyllin: the signs of toxicity entry in data set [1] (rodents, indicated doses (acute up to 5000 mg/kg; 1000 mg/kg for 28 days)) was “no signs of toxicity”. For the same substance, the LD50 entry in data set [1] (rodents, oral, proposed from absence of toxicity) is on record as “higher than 5000 mg/kg body weight”. Further, the “tolerability of acute oral dose” value in data set [1] (up to 5000 mg/kg body weight, oral gavage, mice and rats) is listed as “well tolerated”. Further, in data set [2] (0.1 micro molar), the “effect on SARS-CoV-2 virus multiplication” value is “did not inhibit”. In data set [2] (5 micro-molar, 72 hr, Vero CCL-81 cells), the “inhibition of SARS-CoV-2 multiplication” value was roughly 87%. For the same substance, in data set [2] (Vero CCL-81 cells, 72 hr), the “concentration required for ~90% inhibition of multiplication of SARS-CoV-2 virus” value is “about 5 micro molar”. The pEC50 in data set [2] (Vero CCL-81 cells, 72 hr, read-out: concentration required to inhibit SARS-CoV-2 multiplication by 50% (EC50)) was greater than 6.00. The “effect on multiplication of SARS-CoV-2 virus” value in data set [2] (less than 1 micro-molar) was “did not significantly decrease”. For the same substance, the “tolerability of repeat dose” value in data set [3] was “well tolerated”. Further, the “time to ANC increase after first dose” value in [4] (750 mg, 4 hr before second dose) was no more than 8 h. Besides, the “increase in ANC relative to pre-dose value” in [4] (8-16 hr after first dose of 750 mg, fasting, five subjects) is given as 12.4-32.5%. Besides, the “increase in lymphocyte counts in human blood as compared to pre-dose value” in data set [5] was “up to 30%”. Besides, in data set [6], the “cytotoxicity in the target cells” value is given as “without causing cytotoxicity”. In addition, the “tolerability in human subjects” value in data set [7] is “well tolerated”. In addition, in data set [8], the “increase in WBC count relative to pre-dose value” is 12.8-26.5%. Further, the “relative decrease in percentage of CD34+ HPSCs in human blood as compared to pre-dose value” in [9] was 50-85%.
